From patent US11414416B1, “Compounds and uses thereof” (Foghorn Therapeutics Inc., priority 2019, dated 2022) come the findings set out here.

Common to all, as to type: cell-based
Experiment [1] concerns SYO1 cells. The experiment is described as follows: Cell cycle analysis, Click-iT Plus EdU Flow Cytometry Assay. The following applies: SYO1, 200 nM or 1 μM, 8 or 13 days, compared to DMSO and lenalidomide. Here is the method: (§1) Procedure: SYO1 cells were treated for 8 or 13 days with DMSO, a BRD9 degrader (Compound 1) at 200 nM or 1 μM, or an E3 ligase binder (lenalidomide) at 200 nM. Compounds were refreshed every 5 days. Cell cycle analysis was performed using the Click-iT™ Plus EdU Flow Cytometry Assay (Invitrogen). The apoptosis assay was performed using the Annexin V-FITC Apoptosis Detection Kit (Sigma A9210). Assays were performed according to the manufacturer's protocol.

The test system of experiment [2] is non-synovial control cancer cell lines (293T, A549, G401). The experiment is described as follows: Growth of non-synovial control cancer cell lines (Example 3). The note with it: FIGS. 5-7. Here is the method: (§2) Cells were treated with DMSO or the BRD9 degrader, Compound 1, at indicated concentrations, and proliferation was monitored from day 7 to day 14 by measuring confluency over time using an IncuCyte live cell analysis system (FIG. 5). Growth medium and compounds were refreshed every 3-4 days.
(§3) Cells were seeded into 12-well plates and treated with DMSO, 1 μM BRD9 inhibitor, Compound 2 (also known as BI-7273, see Martin et al, J Med Chem. 59(10):4462-4475 (2016); see structure of Compound 2 below), or 1 μM BRD9 degrader, Compound 1.
(§4) The number of cells was optimized for each cell line. Growth medium and compounds were refreshed every 3-5 days. SYO1, Yamato, A549, 293T and HS-SY-II cells were fixed and stained at day 11. ASKA cells were fixed and stained at day 23. Staining was done by incubation with crystal violet solution (0.5 g Crystal Violet, 27 ml 37% Formaldehyde, 100 mL 10×PBS, 10 mL Methanol, 863 dH20 to 1 L) for 30 min followed by 3× washes with water and drying the plates for at least 24 h at room temperature. Subsequently plates were scanned on an Odyssey CLx Imaging system (FIG. 6).
(§5) Cells were seeded into 96-well ultra low cluster plate (Costar, #7007) in 200 μL complete media and treated at day 2 with DMSO, Staurosporin, or BRD9 degarder, Compound 1, at indicated doses (FIG. 7). Media and compounds were changed every 5 d and cell colonies were imaged at day 14.

Experiment [3] deals with synovial sarcoma cell lines (SYO1, HS-SY-II, and ASKA). In words: Growth of synovial sarcoma cell lines, crystal violet day 14 (Example 4). Here is the method: (§6) Procedure: Cells were seeded into 6-well or 12-well plates and were treated daily with a BRD9 degrader (Compound 1), a bromo-domain BRD9 binder (Compound 2), E3 ligase binder (lenalidomide), DMSO, or staurosporin (positive control for cell killing), at indicated concentrations. The number of cells was optimized for each cell line. Growth media was refreshed every 5 days. By day 14, medium was removed, cells were washed with PBS, and stained using 500 μL of 0.005% (w/v) crystal violet solution in 25% (v/v) methanol for at least 1 hour at room temperature. Subsequently plates were scanned on an Odyssey CLx Imaging system.

Experiment [4] concerns synovial sarcoma cell lines (SYO1, Yamato, HS-SY-II, and ASKA). In words: Growth of synovial sarcoma cell lines (confluency, crystal violet, colonies; Example 3). The following applies: FIGS. 5-7, 1 μM in crystal violet assay. Here is the method: as §2, §3, §4, §5
Experiment [5] deals with SYO1 cells. The experiment is described as follows: Apoptosis assay, Annexin V-FITC Apoptosis Detection Kit. The note with it: SYO1, 200 nM or 1 μM, 8 days, compared to DMSO controls. Here is the method: as §1
For experiment [6], the system named is non-synovial control cancer cell lines (RD, HCT116, and Calu6). In words: Growth of non-synovial control cancer cell lines, crystal violet day 14 (Example 4). The following applies: treated daily, day 14, FIG. 9. Here is the method: as §6

The structures appear in SMILES notation.

Regarding `COc1cc(-c2cn(C)c(=O)c3cnccc23)cc(OC)c1CN(C)CC(=O)NCCOCCOCCNc1cccc2c1C(=O)N(C1CCC(=O)NC1=O)C2=O` (stereo not shown) [Compound 1], in the experiment with SYO1 cells [1], the “numbers of cells in the S-phase of the cell cycle” value is recorded as “reduced numbers of cells in the S-phase”. For the same molecule, the “inhibition of growth of non-synovial control cancer cell lines” value in experiment [2] is “does not result in inhibition of the growth”; in experiment [6], “did not result in inhibition of the growth”. Further, the “inhibition of growth of synovial sarcoma cell lines” value in experiment [3] (SYO1, HS-SY-II, ASKA, treated daily, day 14, FIG. 8) is reported as “inhibition of the growth of the cells”; in experiment [4], “inhibition of the growth of the cells”. In addition, the “overall comparison of growth inhibition in synovial cell lines” value in experiment [3] (compared with Compound 2 and lenalidomide) was “most significant growth inhibition”. Also, the “numbers of early- and late-apoptotic cells” value with SYO1 cells [5] is “increased numbers of early- and late-apoptotic cells”.
